Experiments:
[1] = tested on: tactile allodynia induced by vincristine sulphate; assay: Tactile allodynia induced by cumulative doses of vincristine sulphate in the rat (paw withdrawal threshold, Dynamic Plantar Aesthesiometer); assay type: in vivo, rat (WISTAR); conditions: for anti-allodynic effect on first day of administration: day 10
Procedure: The effect of cholest-4-en-3-one oxime on tactile allodynia induced by cumulative doses of vincristine sulphate was evaluated in the rat. Adult male WISTAR rats weighing approximately 250 g were used. Vincristine sulphate was injected by intravenous route at 200 μg/kg on days 1, 4 and 6 (total cumulative dose of 600 μg/kg). The animal's paw withdrawal thresholds to harmless mechanical stimulation were measured in the rats on days 0, 3, 5, 7 and then every day from day 10 to day 14. The cholest-4-en-3-one oxime (10, 30 and 100 mg/kg once daily) was administered by oral route from day 10 to day 14 and the paw withdrawal thresholds were measured 4 hours after administration of the cholest-4-en-3-one oxime. 8 rats were used per tested dose. The mechanical stimulation thresholds at which the animals withdraw their hind paw in response to mechanical stimulations were measured using a Dynamic Plantar Aesthesiometer (Ugo Basile, Italy). Briefly, in a temperature-controlled room (approximately 22° C.) each animal was placed in a transparent cubic box made of Perspex (22×16.5×14 cm) containing a metal mesh floor giving access to the soles of its paws and left for 15 minutes before the test in order for it to acclimatize. A mechanical stimulus was applied to the left hind paw using a stainless filament (0.5 mm in diameter) exerting a force which increases linearly (2.5 g/sec). The force (g) at which the animal withdraws its paw was recorded automatically. Each paw withdrawal threshold was calculated as the average of three consecutive tests carried out at 5-minute intervals by an investigator ignorant of the treatments used on each of the animals. A 50 g limit was imposed in order to prevent tissue damage. A stock solution of cholest-4-en-3-one oxime in corn oil was prepared on the first day of the experiment and administered once daily by oral tube feeding (5 ml/kg). The cholest-4-en-3-one oxime was reduced to a fine powder and mixed with the necessary quantity of excipient in order to obtain concentrations of […], 6 and 20 mg/ml, the mixture is then homogenized by magnetic stirring for at least 10 minutes. Stock solutions were kept at 4° C. between administrations. A statistical analysis was carried out using a two-way ANOVA test followed by Tukey's test in order to compare the effect of the test compound with respect to the excipient.

[2] = tested on: neuropathies induced by paclitaxel; assay: Hypersensitivity to pain (mechanical allodynia 4 gVFH, mechanical hyperalgesia 15 gVFH) in rat model of neuropathies induced by paclitaxel; assay type: in vivo, rat (Sprague-Dawley); conditions: for anti-allodynia (4 gVFH) / anti-hyperalgesia (15 gVFH): AUC D16-D40
Procedure: Adult male Sprague-Dawley rats were used.
Paclitaxel (6 mg/ml in a 50:50 mixture of Cremophor and ethanol) was diluted just before use with a […] sodium chloride solution at a concentration of 2 mg/ml and injected by intraperitoneal route in a volume of 1 ml/kg on days 0, 2, 4 and 6.
Fresh solutions of cholest-4-en-3 one oxime (Sigma) in corn oil were prepared each week at a concentration of 0.6 or 6.0 mg/ml. This solution was given to the animal by oral tube feeding in a volume of 5 ml/kg.
Three groups of 12 animals treated with paclitaxel were formed: • group 1: cholest-4-en-3-one oxime at 3 mg/kg per os, daily for 17 days (day(−1)-day(15), commencing on the day before the first injection of paclitaxel and continuing for 9 days after the last injection of paclitaxel). On the days when the cholest-4-en-3-one oxime and the paclitaxel had to be administered, the cholest-4-en-3-one oxime was given at 9:00 h, and the paclitaxel at 13:00 h; • group 2: as above except that the cholest-4-en-3-one oxime was given at 30 mg/kg; • group 3: as above except that the animals received an identical volume of excipient (corn oil);
The animals were habituated to the test environment for 3 separate days and then 3 sessions per day were organized in order to establish the normal response to a von Frey hairs (VFH) stimulation exerting pressure of 4 g or 15 g (4 gVFH or 15 gVFH). Normal rats rarely withdraw from a stimulation with 4 gVFH; thus, an increase in response post treatment with paclitaxel is a sign of mechanical allodynia. Normal rats withdraw from a stimulation with 15 gVFH 10-20% of the time; thus an increased frequency of response to this stimulus indicates mechanical hyperalgesia.
The animals were placed in cages containing a metal mesh floor giving access to the soles of the animals' paws. Each mechanical stimulus was applied to the middle of the heel of the left hind paw. The presence or absence of withdrawal of the paw was noted. This was repeated 5 times on each hind paw and the animals' responses were summarized as a percentage of responses (5 withdrawals of the paw in response to a stimulation of 15 gVFH corresponded to a score of 50%).
The rats were habituated to the test environment for 3 days. Tests relating to the reference level of sensitivity at 4 g and 15 gVFH were carried out for 3 consecutive days; the average of the last two corresponded to the level of sensitivity before treatment with paclitaxel. The behaviour tests for testing the effects of paclitaxel commenced on day 16 and were repeated on days 19, 22, 25, 28, 31, 35 and 40, by an investigator ignorant of the treatments applied to each of the animals.
The area-under-the-curve values were calculated for each group during the period from D16 to D40 (from the start of the appearance of the pain due to the paclitaxel to the end of the experiment). The AUC values were analyzed with an ANOVA test followed by comparison “in pairs” with the group having received the excipient by Dunnett's t-test.

[3] = tested on: cold allodynia induced by oxaliplatin; assay: Cold allodynia (acetone drop) induced by cumulative doses of oxaliplatin in the rat; assay type: in vivo, rat (Sprague-Dawley)
Procedure: The effect of the cholest-4-en-3-one oxime on cold allodynia induced by cumulative doses of oxaliplatin were evaluated in the rat. Adult male Sprague-Dawley rats weighing approximately 150 g were used. The oxaliplatin was injected by intra-peritoneal route at 3 mg/kg three times a week and for three weeks (total cumulative dose of 27 mg/kg). The paw withdrawal time as well as the amplitude of the animal's response to harmless thermal stimulations using a drop of acetone were measured in the rats before and after treatment by oxaliplatin on days 1 and 18 respectively, and then on each day of treatment with cholest-4-en-3-one oxime, from day 22 to day 25. The cholest-4-en-3-one oxime (1, 10 and 100 mg/kg once daily) was administered by oral route from day 22 to day 25 and the thresholds for withdrawal of the paw were measured 4 hours after administration of the cholest-4-en-3-one oxime. 7 to 9 rats were used per dose tested. For each animal, the reaction times at which the animals withdrew their hind paw following the deposition of the drop of acetone were calculated as the average of six consecutive tests carried out at 5-minute intervals by an investigator ignorant of the treatments applied to each of the animals. A limit of 20 seconds was imposed. The amplitude of the response to the drop of acetone was marked on a scale of 0 to 3: 0 (no response); 1 (rapid withdrawal of the paw); 2 (prolonged withdrawal of the paw); 3 (repeated withdrawal of the paw with licking and/or biting). The score of each of the six tests was totalled. A stock solution of cholest-4-en-3-one oxime in corn oil was prepared on the first day of the experimentation and administered once daily by oral tube feeding (5 ml/kg). The cholest-4-en-3-one oxime was reduced to a fine powder and mixed with the necessary quantity of vehicle in order to obtain concentrations of 0.2, 2 and 20 mg/ml, the mixture is then homogenized by magnetic stirring for at least 10 minutes. Stock solutions were kept at 4° C. between administrations. A statistical analysis was carried out using a two-way ANOVA test followed by Bonferroni's test in order to compare the effect of the test compound with respect to the vehicle.

[4] = 3 mg/kg per os daily for 17 days
[5] = 30 mg/kg per os daily for 17 days

Structure (SMILES): CC(C)CCC[C@@H](C)[C@H]1CC[C@H]2[C@@H]3CCC4=CC(=NO)CC[C@]4(C)[C@H]3CC[C@]12C [cholest-4-en-3-one oxime]
- anti-allodynic effect on first day of administration ([1]; oral 10 mg/kg, p=0.086): no significant anti-allodynic effect
- anti-allodynic effect on first day of administration ([1]; oral 30 mg/kg, P=0.232): no significant anti-allodynic effect
- effect on allodynia induced by vincristine, daily treatment ([1]; oral 10, 30 and 100 mg/kg once daily, days 11 to 14, P<0.05 in all cases): significantly alleviates the allodynia
- effect on allodynia induced by vincristine vs excipient ([1]; single oral dose 100 mg/kg, day 10, measured 4 hours after administration, P<0.001): significantly alleviates the allodynia
- development of mechanical allodynia and hyperalgesia ([2]; 3 mg/kg and 30 mg/kg per os daily day -1 to day 15, AUC D16 to D40, p<0.01): significantly inhibited
- anti-allodynia (4 gVFH) [2, 4]: 59%
- anti-hyperalgesia (15 gVFH) [2, 4]: 45%
- anti-allodynia (4 gVFH) [2, 5]: 53%
- anti-hyperalgesia (15 gVFH) [2, 5]: 40%
- anti-allodynic effect on first day of administration ([3]; lower doses (1 and 10 mg/kg oral), day 22): no significant anti-allodynic effect
- anti-allodynic effect after daily treatment ([3]; oral 100 mg/kg once daily, days 22 to 25): persisted
- effect on cold allodynia induced by oxaliplatin from third day of administration ([3]; oral 1 and 10 mg/kg once daily, day 24, P<0.05): significantly reduced the cold allodynia
- effect on allodynia induced by oxaliplatin vs excipient ([3]; single oral dose 100 mg/kg, day 22, P<0.05): significantly reduced the allodynia

Reference: patent publication US20100310674A1, “NOVEL COMPOSITION FOR TREATING THE SIDE EFFECTS OF ANTICANCER TREATMENTS” (TROPHOS, priority 2007, published 2010)
